{
  "source": "patent US6583170B1",
  "about": "“2-Phenyl-1-[4-(amino-1-yl-alk-1-ynyl)-benzyl]-1H-indol-5-ol and estrogen formulations” (Wyeth, priority 1998, dated 2003)",
  "key": {"[1]": {"test_system": "uterus wet weight, immature Sprague-Dawley rats", "assay": "Rat Uterotrophic/Antiuterotrophic Bioassay", "type": "in vivo", "conditions": "day 4; for uterine wet weight, 10 μG: 10 uG compound daily ip; for uterine wet weight, 10 μG / uterine wet weight, 100 μG / uterine wet weight, 100 μG + 1 μG 17β-estradiol: immature female rats; for uterine wet weight, 100 μG: 100 uG compound daily ip; for uterine wet weight, 100 μG + 1 μG 17β-estradiol: 100 uG compound + 1 uG 17β-estradiol daily ip", "description": "Rat Uterotrophic/Antiuterotrophic Bioassay The estrogenic and antiestrogenic properties of the compounds were determined in an immature rat uterotrophic assay (4 day) that (as described previously by L. J. Black and R. L. Goode, Life Sciences, 26, 1453 (1980)). Immature Sprague-Dawley rats (female, 18 days old) were tested in groups of six. […] A small section of one horn was submitted for histology and the remainder used to isolate total RNA in order to evaluate complement component 3 gene expression."}, "Ishikawa cells": {"test_system": "Ishikawa cells", "assay": "Ishikawa Cell Alkaline Phosphatase Assay", "type": "cell-based, human", "conditions": "compound alone; percent of response related to 1 nM 17β-estradiol; 48 h", "description": "Ishikawa Cell Alkaline Phosphatase Assay Cell Maintenance and Treatment: […] Cells were treated for 48 h prior to assay. […] Sample population for at each dose was n=8. Alkaline Phosphatase Assay: […] Plates are placed at -80° C. for a minimum of 15 minutes. Plates are thawed at 37° C. followed by the addition of 150 μL of 0.1 M Tris-HCl, pH 9.8, containing 4 mM para-nitrophenylphosphate (pNPP) to each well (final concentration, 3 mM pNPP). Absorbance and slope calculations were made using the […] Application program (Bio-Tek Instruments, Inc., Winooski, VT.). […] Various compounds were assayed for estrogenic activity by the alkaline phosphatase method and corresponding ED50 values (95% C.I.) were calculated. The four listed in the following were used as as reference standards: A description of these methods is described by Holinka, […]., Kuramoto, H. and Gurpide, E. (1986) Effects of steroid hormones and antisteroids on alkaline phosphatase activity in human endometrial cancer cells (Ishikawa Line). Cancer Research, 46:2771-2774, and by […]. and […] simple and sensitive microtiter plate estrogen bioassay based on stimulation alkaline phosphatase in Ishikawa cells; […] Endocrinology, 6:2757-2762."}, "estrogen receptor": {"molecular_target": "T1, estrogen receptor (Homo sapiens, UniProt P03372)", "T1 construct": "expressed in transfected cells; host or cells: CHO cells, ribosome-free cytosol", "T1 sequence (P03372 1-595)": "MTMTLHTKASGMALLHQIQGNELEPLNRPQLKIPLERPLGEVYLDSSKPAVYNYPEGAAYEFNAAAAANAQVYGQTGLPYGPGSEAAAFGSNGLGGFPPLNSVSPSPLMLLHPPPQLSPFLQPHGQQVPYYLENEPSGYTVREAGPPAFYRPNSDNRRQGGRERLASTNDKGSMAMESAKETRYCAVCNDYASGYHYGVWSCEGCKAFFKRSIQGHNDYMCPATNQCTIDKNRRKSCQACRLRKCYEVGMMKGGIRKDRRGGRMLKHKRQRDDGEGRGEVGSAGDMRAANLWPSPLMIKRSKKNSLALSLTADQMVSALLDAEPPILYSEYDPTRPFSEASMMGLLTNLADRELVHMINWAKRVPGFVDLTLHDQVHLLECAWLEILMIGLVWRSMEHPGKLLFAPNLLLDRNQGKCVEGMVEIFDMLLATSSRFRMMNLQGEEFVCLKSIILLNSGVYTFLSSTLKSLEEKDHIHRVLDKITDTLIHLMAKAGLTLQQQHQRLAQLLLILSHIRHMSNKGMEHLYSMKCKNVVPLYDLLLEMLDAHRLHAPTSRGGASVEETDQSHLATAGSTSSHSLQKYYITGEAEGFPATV", "assay": "In Vitro Estrogen Receptor Binding Assay ([3H]-17β-estradiol competition)", "conditions": "RBA: 17β-estradiol=100; cytosol of CHO cells overexpressing the estrogen receptor"}},
  "note": "Several values for one entry are separate records, joined by “and”; a condition that tells them apart may be missing. Equal entries are not always repeated.",
  "data": [
    {"smiles": "Cc1c(-c2ccc(O)cc2)n(Cc2ccc(C#CCN3CCCC3)cc2)c2ccc(O)cc12", "values": [
      {"measurement": "melting point", "value": "174 to 176", "unit": "°C"}
    ]},
    {"smiles": "C[C@]12CC[C@@H]3c4ccc(O)cc4CC[C@H]3[C@@H]1CC[C@@H]2O", "note": "[17β-estradiol]", "values": [
      {"measurement": "uterine wet weight, 1 μG 17β-estradiol", "setting": "[1]; 1 uG 17β-estradiol daily ip, positive control of each experiment", "value": "1 μG 17β-estradiol = 98.2 mg and 1 μG 17β-estradiol = 90.2 mg and 1 μg 17β-estradiol = 82.8 mg"}
    ]},
    {"smiles": "CC/C(=C(\\c1ccccc1)c1ccc(OCCN(C)C)cc1)c1ccccc1", "note": "[Tamoxifen]", "values": [
      {"measurement": "% Activation", "setting": "Ishikawa cells", "value": 0, "unit": "%"},
      {"measurement": "uterine wet weight, 10 μG", "setting": "[1]", "value": 69.6, "unit": "mg"},
      {"measurement": "uterine wet weight, 100 μG", "setting": "[1]", "value": 71.4, "unit": "mg"}
    ]},
    {"smiles": "Cc1c(-c2ccc(O)cc2)n(Cc2ccc(C#CCN3CCCCC3)cc2)c2ccc(O)cc12", "note": "[Example 5, 2-(4-Hydroxy-phenyl)-3-methyl-1-[4-(3-piperidin-1-yl-prop-1-vinyl)-benzyl]-1H-indol-5-ol]", "values": [
      {"measurement": "Estrogen Receptor Affinity (RBA)", "setting": "estrogen receptor", "value": 23},
      {"measurement": "uterine wet weight, 10 μG", "setting": "[1]", "value": 55.6, "unit": "mg"},
      {"measurement": "uterine wet weight, 100 μG + 1 μG 17β-estradiol", "setting": "[1]", "value": 66.8, "unit": "mg"},
      {"measurement": "uterine wet weight, 100 μG", "setting": "[1]", "value": 71.3, "unit": "mg"}
    ]},
    {"smiles": "O=C(c1ccc(OCCN2CCCCC2)cc1)c1c(-c2ccc(O)cc2)sc2cc(O)ccc12", "note": "[Raloxifene]", "values": [
      {"measurement": "% Activation", "setting": "Ishikawa cells", "value": 5, "unit": "%"},
      {"measurement": "uterine wet weight, 10 μG", "setting": "[1]", "value": 47.5, "unit": "mg"},
      {"measurement": "uterine wet weight, 100 μG", "setting": "[1]", "value": 43.2, "unit": "mg"}
    ]},
    {"smiles": "Cc1c(-c2ccc(O)cc2)n(Cc2ccc(C#CCN(C)C)cc2)c2ccc(O)cc12", "note": "[Example 4, 2-(4-Hydroxy-phenyl)-3-methyl-1-[4-(3-N,N-dimethyl-1-yl-prop-1-ynyl)-benzyl]-1H-indol-5-ol]", "values": [
      {"measurement": "Estrogen Receptor Affinity (RBA)", "setting": "estrogen receptor", "value": 53},
      {"measurement": "uterine wet weight, 10 μG", "setting": "[1]", "value": 56.0, "unit": "mg"},
      {"measurement": "uterine wet weight, 100 μG + 1 μG 17β-estradiol", "setting": "[1]", "value": 77.6, "unit": "mg"},
      {"measurement": "uterine wet weight, 100 μG", "setting": "[1]", "value": 84.0, "unit": "mg"}
    ]}
  ]
}
